Test results taken from patent US12539292B2, “BRM targeting compounds and associated methods of use” (Arvinas Operations, Inc., priority 2018, dated 2026).
Where two headings read alike, the source gives them in different places.

Target: T1, BRM (Homo sapiens, UniProt P51531)
T1 construct: In-Cell Western Screen of BRM Degradation in SW1573 Cells; endogenous in cells; host or cells: SW1573
Assay: In-cell Western screen of BRM degradation in SW1573 cells (Dmax and DC50)
Assay type: cell-based
Procedure, shortened: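 Adherent SW1573 cultures exposed to test compounds for 18-20 h were processed for in-cell Western after PFA fixation and detergent permeabilization. BRM degradation was reported as Dmax and DC50.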

[1] = BRM degradation, SW1573 cells, read-out: DC50
[2] = BRM degradation, SW1573 cells, when tested at the top concentration of between 0.3 and 10 μM, read-out: Dmax (%) (% degraded)
[3] = target protein degradation, read-out: BRM DC50
[4] = BRM degradation, SW1573 cells, Table 2D, read-out: **Dmax (%) (% degraded)
[5] = BRM degradation, SW1573 cells, Table 2D, read-out: *DC50

T1 sequence (P51531 whole entry): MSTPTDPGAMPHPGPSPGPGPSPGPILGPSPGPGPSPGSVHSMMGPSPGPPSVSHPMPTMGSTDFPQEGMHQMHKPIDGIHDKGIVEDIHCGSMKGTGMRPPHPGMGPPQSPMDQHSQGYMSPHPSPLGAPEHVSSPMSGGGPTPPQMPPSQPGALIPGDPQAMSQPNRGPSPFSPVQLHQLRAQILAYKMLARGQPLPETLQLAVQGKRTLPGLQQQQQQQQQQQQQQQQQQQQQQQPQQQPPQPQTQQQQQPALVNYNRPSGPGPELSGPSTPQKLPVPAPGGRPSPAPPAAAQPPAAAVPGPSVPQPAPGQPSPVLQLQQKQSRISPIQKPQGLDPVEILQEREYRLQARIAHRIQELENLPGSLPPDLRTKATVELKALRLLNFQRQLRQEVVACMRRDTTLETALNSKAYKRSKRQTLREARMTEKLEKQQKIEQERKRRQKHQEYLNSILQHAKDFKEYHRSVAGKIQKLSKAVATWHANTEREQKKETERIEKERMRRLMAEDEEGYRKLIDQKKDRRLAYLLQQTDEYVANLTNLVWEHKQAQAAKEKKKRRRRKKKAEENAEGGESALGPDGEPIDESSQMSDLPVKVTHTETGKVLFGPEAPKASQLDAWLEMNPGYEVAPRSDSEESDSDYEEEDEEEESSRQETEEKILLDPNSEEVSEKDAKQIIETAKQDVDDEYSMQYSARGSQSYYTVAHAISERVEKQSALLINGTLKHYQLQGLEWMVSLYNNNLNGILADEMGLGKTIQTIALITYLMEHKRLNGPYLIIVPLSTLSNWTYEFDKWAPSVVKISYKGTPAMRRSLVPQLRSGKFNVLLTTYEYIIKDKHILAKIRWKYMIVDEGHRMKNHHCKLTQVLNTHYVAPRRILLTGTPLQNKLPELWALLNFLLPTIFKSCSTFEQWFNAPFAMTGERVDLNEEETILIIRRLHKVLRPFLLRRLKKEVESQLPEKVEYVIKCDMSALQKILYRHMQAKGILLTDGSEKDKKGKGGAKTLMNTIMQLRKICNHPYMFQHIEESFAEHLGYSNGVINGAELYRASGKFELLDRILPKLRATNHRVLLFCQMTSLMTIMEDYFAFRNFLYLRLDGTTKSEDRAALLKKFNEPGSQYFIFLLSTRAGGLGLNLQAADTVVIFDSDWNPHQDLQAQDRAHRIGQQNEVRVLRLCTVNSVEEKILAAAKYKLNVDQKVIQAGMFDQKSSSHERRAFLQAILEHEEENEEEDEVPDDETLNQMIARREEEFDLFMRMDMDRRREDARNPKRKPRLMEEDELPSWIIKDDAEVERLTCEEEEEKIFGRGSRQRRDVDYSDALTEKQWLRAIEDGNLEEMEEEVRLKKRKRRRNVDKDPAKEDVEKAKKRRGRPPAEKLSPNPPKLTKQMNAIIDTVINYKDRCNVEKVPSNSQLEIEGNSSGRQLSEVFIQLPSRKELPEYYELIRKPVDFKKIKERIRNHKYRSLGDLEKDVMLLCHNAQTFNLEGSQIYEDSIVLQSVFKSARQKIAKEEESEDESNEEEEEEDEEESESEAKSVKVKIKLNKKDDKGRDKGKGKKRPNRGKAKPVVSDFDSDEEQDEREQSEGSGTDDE

## Cc1ncsc1-c1ccc([C@H](C)NC(=O)[C@@H]2C[C@@H](O)CN2C(=O)[C@@H](c2cc(OCCN3CCC4(CC3)CC(OCCN3CCOC5(CCN(c6cc(-c7ccccc7O)nnc6N)CC5)C3)C4)no2)C(C)C)cc1 [compound 93, (2S,4R)-1-((R)-2-(3-(2-(2-(2-(9-(3-amino-6-(2-hydroxyphenyl)pyridazin-4-yl)-1-oxa-4,9-diazaspiro[5.5]undecan-4-yl)ethoxy)-7-azaspiro[3.5]nonan-7-yl)ethoxy)isoxazol-5-yl)-3-methylbutanoyl)-4-hydroxy-N-((S)-1-(4-(4-methylthiazol-5-yl)phenyl)ethyl)pyrrolidine-2-carboxamide]
[1]
  DC50: < 2.5 nM
[2]
  Dmax: > 75%

## Cc1ncsc1-c1ccc([C@H](C)NC(=O)[C@@H]2C[C@@H](O)CN2C(=O)[C@@H](c2cc(OCCOCCOCCCCN3CC4(C3)CN(c3cc(-c5ccccc5O)nnc3N)C4)no2)C(C)C)cc1 [compound 66, (2S,4R)-1-((R)-2-(3-(2-(2-(4-(6-(3-amino-6-(2-hydroxyphenyl)pyridazin-4-yl)-2,6-diazaspiro[3.3]heptan-2-yl)butoxy)ethoxy)ethoxy)isoxazol-5-yl)-3-methylbutanoyl)-4-hydroxy-N-((S)-1-(4-(4-methylthiazol-5-yl)phenyl)ethyl)pyrrolidine-2-carboxamide]
[1]
  DC50: > 30 nM
[2]
  Dmax: > 75%

## Cc1ncsc1-c1ccc([C@H](C)NC(=O)[C@@H]2C[C@@H](O)CN2C(=O)[C@@H](c2cc(OCC#CC34CC(CN[C@H]5C[C@H](Oc6cc(N7C8CC[C@@H]7CN(c7cc(-c9ccccc9O)nnc7N)C8)ccn6)C5)(C3)C4)no2)C(C)C)cc1 [compound 382, (2S,4R)-1-((2R)-2-(3-((3-(3-((((1r,3R)-3-((4-(3-(3-amino-6-(2-hydroxyphenyl)pyridazin-4-yl)-3,8-diazabicyclo[3.2.1]octan-8-yl)pyridin-2-yl)oxy)cyclobutyl)amino)methyl)bicyclo[1.1.1]pentan-1-yl)prop-2-yn-1-yl)oxy)isoxazol-5-yl)-3-methylbutanoyl)-4-hydroxy-N-((S)-1-(4-(4-methylthiazol-5-yl)phenyl)ethyl)pyrrolidine-2-carboxamide]
% degraded, when tested at the top concentration of between 0.3 and 10 μM
  BRM Dmax (%): A (A > 75)
[3]
  DC50: < 2.5 nM

## Cc1nccn1-c1ccc([C@H](C)NC(=O)[C@@H]2C[C@@H](O)CN2C(=O)[C@@H](c2cc(OCC#Cc3ncc(O[C@H]4C[C@H](Oc5cc(N6C7CCC6CN(c6cc(-c8ccccc8O)nnc6N)C7)ccn5)C4)cn3)no2)C(C)C)cc1 [compound 394, (2S,4R)-1-((2R)-2-(3-((3-(5-((1r,3R)-3-((4-(3-(3-amino-6-(2-hydroxyphenyl)pyridazin-4-yl)-3,8-diazabicyclo[3.2.1]octan-8-yl)pyridin-2-yl)oxy)cyclobutoxy)pyrimidin-2-yl)prop-2-yn-1-yl)oxy)isoxazol-5-yl)-3-methylbutanoyl)-4-hydroxy-N-((S)-1-(4-(2-methyl-1H-imidazol-1-yl)phenyl)ethyl)pyrrolidine-2-carboxamide]
SW1573, % degraded, when tested at the top concentration of between 0.3 and 10 μM, read-out: BRM Dmax (%)
  Dmax: > 75%
[3]
  DC50: < 2.5 nM

## Cc1ncsc1-c1ccc([C@H](C)NC(=O)[C@@H]2C[C@@H](O)CN2C(=O)[C@@H](c2cc(N3CCC(CN4CCC(O[C@H]5C[C@H](N6CCOC7(CCN(c8cc(-c9ccccc9O)nnc8N)CC7)C6)C5)CC4)CC3)no2)C(C)C)cc1 [compound 618, (2S,4R)-1-((R)-2-(3-(4-((4-((1r,3r)-3-(9-(3-amino-6-(2-hydroxyphenyl)pyridazin-4-yl)-1-oxa-4,9-diazaspiro[5.5]undecan-4-yl)cyclobutoxy)piperidin-1-yl)methyl)piperidin-1-yl)isoxazol-5-yl)-3-methylbutanoyl)-4-hydroxy-N-((S)-1-(4-(4-methylthiazol-5-yl)phenyl)ethyl)pyrrolidine-2-carboxamide]
[4]
  Dmax: > 75%
[5]
  DC50: < 2.5 nM

## Cc1ncsc1-c1ccc([C@H](C)NC(=O)[C@@H]2C[C@@H](O)CN2C(=O)[C@@H](c2cc(N3CC(COCCOc4cc(N5C6CCC5CN(c5cc(-c7ccccc7O)nnc5N)C6)ccn4)C3)no2)C(C)C)cc1 [compound 550, (2S,4R)-1-((2R)-2-(3-(3-((2-((4-(3-(3-amino-6-(2-hydroxyphenyl)pyridazin-4-yl)-3,8-diazabicyclo[3.2.1]octan-8-yl)pyridin-2-yl)oxy)ethoxy)methyl)azetidin-1-yl)isoxazol-5-yl)-3-methylbutanoyl)-4-hydroxy-N-((S)-1-(4-(4-methylthiazol-5-yl)phenyl)ethyl)pyrrolidine-2-carboxamide]
[4]
  Dmax: > 75%
[5]
  DC50: < 2.5 nM

## Cc1ncsc1-c1ccc([C@H](C)NC(=O)[C@@H]2C[C@@H](O)CN2C(=O)[C@H](c2onc(OCCN3CCC(O[C@H]4C[C@H](Oc5cc(N6C7CCC6CN(c6cc(-c8ccccc8O)nnc6N)C7)ccn5)C4)CC3)c2Cl)C(C)C)cn1 [compound 222, (2S,4R)-1-((2S)-2-(3-(2-(4-((1r,3S)-3-((4-(3-(3-amino-6-(2-hydroxyphenyl)pyridazin-4-yl)-3,8-diazabicyclo[3.2.1]octan-8-yl)pyridin-2-yl)oxy)cyclobutoxy)piperidin-1-yl)ethoxy)-4-chloroisoxazol-5-yl)-3-methylbutanoyl)-4-hydroxy-N-((S)-1-(6-(4-methylthiazol-5-yl)pyridin-3-yl)ethyl)pyrrolidine-2-carboxamide]
[1]
  DC50: > 30 nM

## Cc1ncsc1-c1ccc([C@H](C)NC(=O)[C@@H]2C[C@@H](O)CN2C(=O)[C@@H](c2cc(OCCN3C[C@H]4C[C@@H]3CN4CCOc3cc(N4C5CCC4CN(c4cc(-c6ccccc6O)nnc4N)C5)ccn3)no2)C(C)C)cc1 [compound 136, (2S,4R)-1-((2R)-2-(3-(2-((1R,4R)-5-(2-((4-(3-(3-amino-6-(2-hydroxyphenyl)pyridazin-4-yl)-3,8-diazabicyclo[3.2.1]octan-8-yl)pyridin-2-yl)oxy)ethyl)-2,5-diazabicyclo[2.2.1]heptan-2-yl)ethoxy)isoxazol-5-yl)-3-methylbutanoyl)-4-hydroxy-N-((S)-1-(4-(4-methylthiazol-5-yl)phenyl)ethyl)pyrrolidine-2-carboxamide]
[1]
  DC50: < 2.5 nM
[2]
  Dmax: > 75%

## Cc1ncsc1-c1ccc([C@H](C)NC(=O)[C@@H]2C[C@@H](O)CN2C(=O)[C@@H](c2cc(OCC[C@H]3CCN(C[C@H]4C[C@H](Oc5cc(N6C7CCC6CN(c6cc(-c8ccccc8O)nnc6N)C7)ccn5)C4)[C@@H](C)C3)no2)C(C)C)cc1 [compound 548, (2S,4R)-1-((2R)-2-(3-(2-((2S,4S)-1-(((1r,3S)-3-((4-(3-(3-amino-6-(2-hydroxyphenyl)pyridazin-4-yl)-3,8-diazabicyclo[3.2.1]octan-8-yl)pyridin-2-yl)oxy)cyclobutyl)methyl)-2-methylpiperidin-4-yl)ethoxy)isoxazol-5-yl)-3-methylbutanoyl)-4-hydroxy-N-((S)-1-(4-(4-methylthiazol-5-yl)phenyl)ethyl)pyrrolidine-2-carboxamide]
[4]
  Dmax: > 75%
[5]
  DC50: < 2.5 nM

## Cc1ncsc1-c1ccc(CNC(=O)[C@@H]2C[C@@H](O)CN2C(=O)[C@@H](NC(=O)COCCOCCN2CCN(CCCc3cc(N4C5CCC4CN(c4cc(-c6ccccc6O)nnc4N)C5)ccn3)CC2)C(C)(C)C)cc1 [compound 40, (2S,4R)-1-[(2S)-2-[2-[2-(2-[4-[3-(4-[3-[3-amino-6-(2-hydroxyphenyl)pyridazin-4-yl]-3,8-diazabicyclo[3.2.1]octan-8-yl]pyridin-2-yl)propyl]piperazin-1-yl]ethoxy)ethoxy]acetamido]-3,3-dimethylbutanoyl]-4-hydroxy-N-[[4-(4-methyl-1,3-thiazol-5-yl)phenyl]methyl]pyrrolidine-2-carboxamide]
[1]
  DC50: > 30 nM
[2]
  Dmax: < 50%

## Cc1ncsc1-c1ccc([C@H](C)NC(=O)[C@@H]2C[C@@H](O)CN2C(=O)[C@@H](c2cc(N3CCC(CN4CCC(O[C@H]5C[C@@H](N6CCC(C(C)n7cc(-c8cc(-c9ccccc9O)nnc8N)cn7)CC6)C5)CC4)CC3)no2)C(C)C)cc1 (stereo partly drawn) [compound 665, (2S,4R)-1-((2R)-2-(3-(4-((4-((1s,3s)-3-(4-(1-(4-(3-amino-6-(2-hydroxyphenyl)pyridazin-4-yl)-1H-pyrazol-1-yl)ethyl)piperidin-1-yl)cyclobutoxy)piperidin-1-yl)methyl)piperidin-1-yl)isoxazol-5-yl)-3-methylbutanoyl)-4-hydroxy-N-((S)-1-(4-(4-methylthiazol-5-yl)phenyl)ethyl)pyrrolidine-2-carboxamide]
[1]
  DC50: < 2.5 nM
BRM degradation, SW1573 cells, read-out: Dmax (% degraded)
  Dmax: > 75%

## Cc1ncsc1-c1ccc([C@H](C)NC(=O)[C@@H]2C[C@@H](O)CN2C(=O)[C@H](c2cc(O[C@H]3C[C@H](CN4CCC(O[C@H]5C[C@H](Oc6cc(N7C8CCC7CN(c7cc(-c9ccccc9O)nnc7N)C8)ccn6)C5)CC4)C3)no2)C(C)C)cc1 [compound 241, (2S,4R)-1-((2S)-2-(3-((1R,3S)-3-((4-((1r,3R)-3-((4-(3-(3-amino-6-(2-hydroxyphenyl)pyridazin-4-yl)-3,8-diazabicyclo[3.2.1]octan-8-yl)pyridin-2-yl)oxy)cyclobutoxy)piperidin-1-yl)methyl)cyclobutoxy)isoxazol-5-yl)-3-methylbutanoyl)-4-hydroxy-N-((S)-1-(4-(4-methylthiazol-5-yl)phenyl)ethyl)pyrrolidine-2-carboxamide]
[1]
  DC50: 2.5 to 10 nM
BRM degradation, SW1573 cells, tested at the top concentration of between 0.3 and 10 μM, read-out: Dmax (%) (% degraded)
  Dmax: > 75%
